Source: patent US20250230193A1, “CYCLIC COMPOUND HAVING SELECTIVE KRAS INHIBITORY EFFECT ON HRAS AND NRAS” (CHUGAI SEIYAKU KABUSHIKI KAISHA, priority 2022, published 2025)

How the values were obtained:
[1] = biological target: GDP-bound HRAS wild-type protein (Homo sapiens, UniProt P01112); test: Binding to HRAS by surface plasmon resonance (SPR), Single Cycle Kinetics; conditions: KD ratio HRAS/KRAS, class symbols
[2] = biological target: GDP-bound NRAS wild-type protein (Homo sapiens, UniProt P01111); test: Binding to NRAS by surface plasmon resonance (SPR), Single Cycle Kinetics; conditions: KD ratio NRAS/KRAS, class symbols
Chain of GDP-bound NRAS wild-type protein (P01111 whole entry): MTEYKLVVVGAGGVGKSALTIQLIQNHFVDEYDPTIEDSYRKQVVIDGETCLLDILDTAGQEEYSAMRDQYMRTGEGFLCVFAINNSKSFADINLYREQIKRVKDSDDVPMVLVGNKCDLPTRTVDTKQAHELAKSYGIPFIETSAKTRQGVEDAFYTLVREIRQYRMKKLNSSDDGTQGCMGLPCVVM

Chain of GDP-bound HRAS wild-type protein (P01112 whole entry): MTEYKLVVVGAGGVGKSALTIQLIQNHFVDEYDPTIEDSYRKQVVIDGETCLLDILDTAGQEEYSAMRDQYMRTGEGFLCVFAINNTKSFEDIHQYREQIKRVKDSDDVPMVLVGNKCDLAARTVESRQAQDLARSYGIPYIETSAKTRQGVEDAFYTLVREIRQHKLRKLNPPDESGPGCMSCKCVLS

Row | SMILES | HRAS/KRAS (ratio of KD value with respect to GDP-bound HRAS wild-type protein to KD value with respect to KRAS) [1] | NRAS/KRAS (ratio of KD value with respect to GDP-bound NRAS wild-type protein to KD value with respect to KRAS) [2]
1 | CCO[C@@H]1C[C@H]2C(=O)NC3(CC(C)(C)C3)C(=O)N(C)[C@@H](C3CCCC3)C(=O)N(C)[C@H](C(=O)N3CCCCC3)CC(=O)N(C)[C@H]3CC/C=C/c4ccc(cc4)C[C@@H](C(=O)N(C)CC(=O)N[C@@H](CCc4ccc(Cl)c(Cl)c4)C(=O)N2C1)N1CC/C=C\C[C@@H](C1=O)N(C)C(=O)CN(C)C(=O)[C@H]([C@@H](C)CC)NC3=O [PP2597] | A (a compound having 10 or more and less than 20 is denoted as A) | A (a compound having 10 or more and less than 20 is denoted as A)
2 | CCO[C@@H]1C[C@H]2C(=O)NC3(CC(C)(C)C3)C(=O)N(C)[C@@H](C3CCCC3)C(=O)N(C)[C@H](C(=O)N(C)CC)CC(=O)N(C)[C@H]3CC/C=C/c4ccc(cc4)C[C@@H](C(=O)N(C)CC(=O)N[C@@H](CCc4ccc(Cl)c(Cl)c4)C(=O)N2C1)N1CC/C=C\C[C@@H](C1=O)N(C)C(=O)CN(C1CC1)C(=O)[C@H]([C@@H](C)CC)NC3=O [PP2598] | A (a compound having 10 or more and less than 20 is denoted as A) | A (a compound having 10 or more and less than 20 is denoted as A)
3 | CCC(CC)[C@H]1C(=O)N(C)[C@H](C(=O)N(C)C)CC(=O)N(C)[C@H]2CCC/C=C/c3ccc(cc3)C[C@@H](C(=O)N(C)CC(=O)N[C@@H](CCc3cc(F)c(C(F)(F)F)c(F)c3)C(=O)N3CCC[C@H]3C(=O)NC3(CC(C)(C)C3)C(=O)N1C)N1CC/C=C\C[C@@H](C1=O)N(C)C(=O)CN(C)C(=O)[C@H]([C@@H](C)CC)NC2=O [PP2600] | A (a compound having 10 or more and less than 20 is denoted as A) | A (a compound having 10 or more and less than 20 is denoted as A)
4 | CC[C@H](C)[C@@H]1NC(=O)[C@@H]2CCC/C=C/c3ccc(cc3)C[C@@H](C(=O)N(C)CC(=O)N[C@@H](CCc3ccc(Cl)c(Cl)c3)C(=O)N3CCC[C@H]3C(=O)NC3(CC(C)(C)C3)C(=O)N(C)[C@@H](C3CCCC3)C(=O)N(C)[C@H](C(=O)N(C)CC)CC(=O)N2C)N2CC/C=C\C[C@@H](C2=O)N(C)C(=O)CN(C)C1=O [PP2601] | A (a compound having 10 or more and less than 20 is denoted as A) | A (a compound having 10 or more and less than 20 is denoted as A)
5 | CC[C@H](C)[C@@H]1NC(=O)[C@@H]2CCC/C=C/c3ccc(cc3)C[C@@H](C(=O)N(C)CC(=O)N[C@@H](CCc3ccc(Cl)c(Cl)c3)C(=O)N3CCC[C@H]3C(=O)NC3(CC(C)(C)C3)C(=O)N(C)[C@@H](C3CCCC3)C(=O)N(C)[C@H](C(=O)N3CCCC3)CC(=O)N2C)N2CC/C=C\C[C@@H](C2=O)N(C)C(=O)CN(C)C1=O [PP2602] | A (a compound having 10 or more and less than 20 is denoted as A) | A (a compound having 10 or more and less than 20 is denoted as A)
6 | CCC(CC)[C@H]1C(=O)N(C)[C@H](C(=O)N(C)C)CC(=O)N(C)[C@H]2CCC/C=C/c3ccc(cc3)C[C@@H](C(=O)N(C)CC(=O)N[C@@H](CCc3ccc(Cl)c(Cl)c3)C(=O)N3CCC[C@H]3C(=O)NC3(CC(C)(C)C3)C(=O)N1C)N1CC/C=C\C[C@@H](C1=O)N(C)C(=O)CN(C)C(=O)[C@H]([C@@H](C)CC)NC2=O [PP2603] | A (a compound having 10 or more and less than 20 is denoted as A) | AA (a compound having 20 or more is denoted as AA)
7 | CCC(CC)[C@H]1C(=O)N(C)[C@H](C(=O)N2CCCC2)CC(=O)N(C)[C@H]2CCC/C=C/c3ccc(cc3)C[C@@H](C(=O)N(C)CC(=O)N[C@@H](CCc3ccc(Cl)c(Cl)c3)C(=O)N3CCC[C@H]3C(=O)NC3(CC(C)(C)C3)C(=O)N1C)N1CC/C=C\C[C@@H](C1=O)N(C)C(=O)CN(C)C(=O)[C@H]([C@@H](C)CC)NC2=O [PP2604] | A (a compound having 10 or more and less than 20 is denoted as A) | AA (a compound having 20 or more is denoted as AA)
8 | CCO[C@@H]1C[C@H]2C(=O)NC3(CCC3)C(=O)N(C)[C@@H](C(CC)CC)C(=O)N(C)[C@H](C(=O)N(C)C)CC(=O)N(C)[C@H]3CCCC/C=C/c4ccc(cc4)C[C@@H](C(=O)N(C)CC(=O)N[C@@H](CCc4ccc(Cl)c(Cl)c4)C(=O)N2C1)N1CC/C=C\C[C@@H](C1=O)N(C)C(=O)CN(C1CC1)C(=O)[C@H]([C@@H](C)CC)NC3=O [PP2605] | A (a compound having 10 or more and less than 20 is denoted as A) | AA (a compound having 20 or more is denoted as AA)
9 | CCO[C@@H]1C[C@H]2C(=O)NC3(CC(C)(C)C3)C(=O)N(C)[C@@H](C(CC)CC)C(=O)N(C)[C@H](C(=O)N3CCCCC3)CC(=O)N(C)[C@@H](COC)C(=O)N[C@@H]([C@@H](C)CC)C(=O)N(C)CC(=O)N(C)[C@H]3C/C=C\CCN(C3=O)[C@@H](Cc3ccc(C(F)(F)F)cc3)C(=O)N(C)CC(=O)N[C@@H](CCc3cc(F)c(C(F)(F)F)c(F)c3)C(=O)N2C1 [PP2606] | AA (a compound having 20 or more is denoted as AA) | AA (a compound having 20 or more is denoted as AA)
10 | CCC(CC)[C@H]1C(=O)N(C)[C@H](C(=O)N2CCCCC2)CC(=O)N(C)[C@@H](COC)C(=O)N[C@@H]([C@@H](C)CC)C(=O)N(C)CC(=O)N(C)[C@H]2C/C=C\CCN(C2=O)[C@@H](Cc2ccc(C(F)(F)F)cc2)C(=O)N(C)CC(=O)N[C@@H](CCc2cc(F)c(C(F)(F)F)c(F)c2)C(=O)N2C[C@H](OC(C)C)C[C@H]2C(=O)NC2(CC(C)(C)C2)C(=O)N1C [PP2608] | A (a compound having 10 or more and less than 20 is denoted as A) | AA (a compound having 20 or more is denoted as AA)
11 | CCO[C@@H]1C[C@H]2C(=O)NC3(CC(C)(C)C3)C(=O)N(C)[C@@H](C(CC)CC)C(=O)N(C)[C@H](C(=O)N3CCCCC3)CC(=O)N(C)[C@@H](COC)C(=O)N[C@@H]([C@@H](C)CC)C(=O)N(C)CC(=O)N(C)[C@H]3C/C=C\CCN(C3=O)[C@@H](Cc3ccc(C(F)(F)F)cc3)C(=O)N(C)CC(=O)N[C@@H](CCc3ccc(Cl)c(Cl)c3)C(=O)N2C1 [PP2610] | A (a compound having 10 or more and less than 20 is denoted as A) | AA (a compound having 20 or more is denoted as AA)
12 | CCC(CC)[C@H]1C(=O)N(C)[C@H](C(=O)N2CCCCC2)CC(=O)N(C)[C@@H](COC)C(=O)N[C@@H]([C@@H](C)CC)C(=O)N(C)CC(=O)N(C)[C@H]2C/C=C\CCN(C2=O)[C@@H](Cc2ccc(C(F)(F)F)cc2)C(=O)N(C)CC(=O)N[C@@H](CCc2ccc(Cl)c(Cl)c2)C(=O)N2C[C@H](OC(C)C)C[C@H]2C(=O)NC2(CC(C)(C)C2)C(=O)N1C [PP2612] | A (a compound having 10 or more and less than 20 is denoted as A) | AA (a compound having 20 or more is denoted as AA)
13 | CCC[C@H]1C(=O)N[C@@H]([C@@H](C)CC)C(=O)N(C2CC2)CC(=O)N(C)[C@H]2C/C=C\CCN(C2=O)[C@@H](Cc2ccc(C)cc2)C(=O)N(C)CC(=O)N[C@@H](CCc2cc(F)c(C(F)(F)F)c(F)c2)C(=O)N2C[C@H](OC3CCC3)C[C@H]2C(=O)NC2(CC(C)(C)C2)C(=O)N(C)[C@@H](C2CCCC2)C(=O)N(C)[C@H](C(=O)N(C)C)CC(=O)N1C [PP2614] | A (a compound having 10 or more and less than 20 is denoted as A) | A (a compound having 10 or more and less than 20 is denoted as A)
14 | CCC(CC)[C@H]1C(=O)N(C)[C@H](C(=O)N(C)C)CC(=O)N(C)[C@@H](COC)C(=O)N[C@@H]([C@@H](C)CC)C(=O)N(C2CC2)CC(=O)N(C)[C@H]2C/C=C\CCN(C2=O)[C@@H](CC2CCC(F)(F)CC2)C(=O)N(C)CC(=O)N[C@@H](CCc2cc(F)c(C(F)(F)F)c(F)c2)C(=O)N2C[C@H](OC3CCC3)C[C@H]2C(=O)NC2(CC(C)(C)C2)C(=O)N1C [PP2615] | A (a compound having 10 or more and less than 20 is denoted as A) | A (a compound having 10 or more and less than 20 is denoted as A)
15 | CCC[C@H]1C(=O)N[C@@H]([C@@H](C)CC)C(=O)N(C2CC2)CC(=O)N(C)[C@H]2C/C=C\CCN(C2=O)[C@@H](Cc2ccc(C)cc2)C(=O)N(C)CC(=O)N[C@@H](CCc2ccc(Cl)c(Cl)c2)C(=O)N2C[C@H](OC3CCC3)C[C@H]2C(=O)NC2(CC(C)(C)C2)C(=O)N(C)[C@@H](C2CCCC2)C(=O)N(C)[C@H](C(=O)N(C)C)CC(=O)N1C [PP2616] | A (a compound having 10 or more and less than 20 is denoted as A) | A (a compound having 10 or more and less than 20 is denoted as A)
16 | CC[C@H](C)[C@@H]1NC(=O)[C@H](COC)N(C)C(=O)C[C@@H](C(=O)N(C)C)N(C)C(=O)[C@H](C2CCCC2)N(C)C(=O)C2(CC(C)(C)C2)NC(=O)[C@@H]2C[C@@H](OC3CCC3)CN2C(=O)[C@H](CCc2cc(F)c(C(F)(F)F)c(F)c2)NC(=O)CN(C)C(=O)[C@H](CC2CCCCC2)N2CC/C=C\C[C@@H](C2=O)N(C)C(=O)CN(C2CC2)C1=O [PP2618] | A (a compound having 10 or more and less than 20 is denoted as A) | A (a compound having 10 or more and less than 20 is denoted as A)
